Results: US20260183274A1, “PDK1 REGULATORY COMPOUND AND COMPOSITION CONTAINING THE SAME” (PROVIBIO CO., LTD., priority 2024, published 2026)

Columns and labels:
[1] = tested on: Human B Lymphocyte cell line, SU-DHL-8; assay: Relative cell viability CCK-8, SU-DHL-8; assay type: cell-based
Procedure: Human-derived B lymphoma cell line SU-DHL-8 (Cat. #CRL-2961) purchased from ATCC was cultured in RPMI-1640 medium containing 10% FBS, 100 U/mL penicillin, and 100 μg/mL streptomycin.
The cell culture medium was then harvested, centrifuged at 1,300 rpm for 5 minutes, and the supernatant was removed. The cells were resuspended in the same medium and dispensed into a 96-well plate (Costar 96-well cell culture plate, Corning) at 90 μL per well, resulting in the conditions specified in Table 5.
Then, 10 μL of CCK-8 was added to each well, and the plates were incubated again at 37° C. in a 5% CO2 incubator for 4 hours.
In other words, when the survival rate of untreated cells (DMSO) is set at 100%, the relative cell survival rate in each group treated with the drug at different concentrations is indicated.

[2] = tested on: T cells isolated from mouse spleens; assay: T cell proliferation inhibition (CFSE flow cytometry, anti-CD3/anti-CD28 stimulation); assay type: cell-based; conditions: mouse spleen T cells, 3 days; for inhibition at 0.01 µM / inhibition at 0.1 µM / inhibition at 1 µM / inhibition at 10 µM / inhibition at 30 µM / inhibition at 50 µM: Mus musculus, T-cell, 72 h, read-out: Proliferation inhibition rate (%)
Method in brief: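 Splenic T cells from 7-week-old C57BL/6 mice were MACS-isolated, CFSE-labelled, seeded at 2×10^5 cells/well and activated with anti-CD3/anti-CD28 (0.5 μg/mL each). Compound at 10 nM–50 μM (six levels, triplicate) was present for 3 days at 37 °C before flow cytometric readout of proliferation inhibition rate.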

Structure (SMILES) | inhibition at 0.01 µM ([2]; compound 10 nM) [%] | inhibition at 0.1 µM ([2]; compound 100 nM) [%] | inhibition at 1 µM ([2]; compound 1 μM) [%] | inhibition at 10 µM ([2]; compound 10 μM) [%] | inhibition at 30 µM ([2]; compound 30 μM) [%] | inhibition at 50 µM ([2]; compound 50 μM) [%] | further results
Nc1ncccc1C(=O)NCCCCCCCCCCCF [Compound 70, 2-Amino-N-(11-fluoro-undecyl)-nicotinamide] |  |  |  |  |  |  | viability at 1 µM ([1]; Homo sapiens, SU-DHL-8, 48 h, read-out: Relative cell viability (%), SU-DHL-8, 1 μM, 48 hours, untreated (DMSO) = 100%): 5.01%; viability at 10 µM ([1]; Homo sapiens, SU-DHL-8, 48 h, read-out: Relative cell viability (%), SU-DHL-8, 10 μM, 48 hours, untreated (DMSO) = 100%): 4.94%; viability at 30 µM ([1]; Homo sapiens, SU-DHL-8, 48 h, read-out: Relative cell viability (%), SU-DHL-8, 30 μM, 48 hours, untreated (DMSO) = 100%): 1.45%; Relative cell viability (%), SU-DHL-8 ([1]; human, 48 h, 50 µM): −0.57%
CN1CCN(CCCCCCCCCCCCNC(=O)c2cccc(N)c2I)CC1 [Compound 197, 3-Amino-2-iodo-N-(12-(4-methylpiperazin-1-yl)dodecyl)benzamide] | 7.81 | 10.3 | 16.4 | 98 | 100 | 100 | 
CN1CCN(CCCCCCCCCCCCNC(=O)c2c(Cl)cncc2Cl)CC1 [Compound 201, 3,5-Dichloro-N-(12-(4-methylpiperazin-1-yl)dodecyl)isonicotinamide] | 7.24 | 6.66 | 8.54 | 78.4 | 100 | 100 | 
O=C(NCCCCCCCCCCCCF)c1ccncc1Nc1cccc(C(F)(F)F)c1 [Compound 59, N-(12-fluoro-dodecyl)-3-(3-trifluoromethyl-phenylamino)-isonicotinamide] | 0 | 0 | 0 | -8.32 | 78.4 | 99.8 | 
CN1CCN(CCCCCCCCCCCCNC(=O)c2cnccc2N)CC1 [Compound 211, 4-Amino-N-(12-(4-methylpiperazin-1-yl)dodecyl)nicotinamide] |  |  |  |  |  | 100 | Proliferation inhibition rate (%) ([2]; compound 10 nM, listed as KP-63, 0.01 µM): −2.17%; Proliferation inhibition rate (%) ([2]; compound 100 nM, listed as KP-63, 0.1 µM): −0.87%; Proliferation inhibition rate (%) ([2]; compound 1 μM, listed as KP-63, 1 µM): 9.70%; Proliferation inhibition rate (%) ([2]; compound 10 μM, listed as KP-63, 10 µM): 90.01%
CN1CCN(CCCCCCCCCCCCNC(=O)c2ccccc2C(=O)NC2CCCCC2)CC1 [Compound 191, N1-Cyclohexyl-N2-(12-(4-methylpiperazin-1-yl)dodecyl)phthalamide] | 0 | 0 | 7.39 | 93.3 | 100 | 100 | 
COc1ncccc1C(=O)NCCCCCCCCCCCCN1CCN(C)CC1 [Compound 200, 2-Methoxy-N-(12-(4-methylpiperazin-1-yl)dodecyl)nicotinamide] | 0 | 0 | 0 | 80 | 100 | 100 | 
Nc1ncccc1C(=O)NCCCCCCCCCCCCN1CCC(F)(F)CC1 [Compound 114, 2-amino-N-(12-(4,4-difluoropiperidin-1-yl)dodecyl)nicotinamide] | -18.3 | 26.2 | 100 | 100 | 100 | 100 | 
CN1CCN(CCCCCCCCCCCCNC(=O)c2ccnc(-c3ccccn3)c2)CC1 [Compound 195, N-(12-(4-methylpiperazin-1-yl)dodecyl)-[2,2′-bipyridine]-4-carboxamide] | 1.77 | 2.81 | -7.83 | 100 | 100 | 100 | 
Nc1ncccc1C(=O)NCCCCCCCCCCCCN1CCC(O)CC1 [Compound 48, 2-Amino-N-(12-(4-hydroxypiperidin-1-yl)dodecyl) nicotinamide] |  |  |  |  |  |  | Proliferation inhibition rate (%) ([2]; compound 10 nM, listed as PBK-2025-012, 0.01 µM): −18.31%; Proliferation inhibition rate (%) ([2]; compound 100 nM): 100.00%; Proliferation inhibition rate (%) ([2]; compound 1 μM): 100.00%; Proliferation inhibition rate (%) ([2]; compound 10 μM): 100.00%; Proliferation inhibition rate (%) ([2]; compound 30 μM): 100.00%; Proliferation inhibition rate (%) ([2]; compound 50 μM): 100.00%
